Values of other authors as cited in US20220370444A1 (priority 2019, published 2022).

Legend:
[1] = not told
[2] = in vivo
TB = conditions: after two weeks of oral administration

For `CC(C)/N=c1\cc2n(-c3ccc(Cl)cc3)c3ccccc3nc-2cc1Nc1ccc(Cl)cc1` [clofazimine], the membrane permeability [1] is listed as “high”, the “absorption in humans after oral administration” value [2] is listed as 45-62% and the clinical benefit (TB) is listed as “no clinical benefit”.
